Data set [1] in a line: Example 1: body weight and blood parameters of MT-3 tumor-bearing mice. It is filed as in vivo, NMRI:nu/nu mice. As for the experimental part:
Summary: Mice were either treated with a single i.v. injection of docetaxel (Taxotere®) at a dose of 25 mg/kg or with the plasma expander Voluven® (20 ml/kg) or with “HES 100/1.0” (approx. 740 mg/kg) dissolved in saline to determine tumor growth and body weight over the course of the experiment.
Adult female NMRI:nu/nu mice (TACONIC Europe, Lille Skensved, Denmark) bred in the own (EPO) colony were used throughout the study.
The application volume was 10 ml/kg (approx. 200 μl/20 g mouse) mouse body weight for vehicle, HES 100/1.0 and docetaxel and 20 ml/kg for Voluven®. The route of administration was by intravenous (i.v.) injection into the tail vein.
Individual body weights of mice were determined two times weekly and mean body weight per treatment group.
Blood samples were drawn from the retro-orbital sinus under iso-flurane anaesthesia three days after the treatment. Blood samples of 50-100 μl were taken into tubes prepared with EDTA for haematological parameters from a subset of each group (generally 30-50%). The following parameters were determined: total leucocyte count (WBC), erythrocyte count (RBC), haemoglobin (HGB), haematocrit (HCT), mean corpuscular volume (MCV), mean corpuscular haemoglobin (MCH), mean corpuscular haemoglobin concentration (MCHC) and platelet count (PLT) using a Coulter Counter instrument.
Statistical evaluation of was performed with the U-test of Mann and Whitney using the Windows program […] 6. A significance level of p<0.05 was used.

The test system of data set [2] is human breast cell carcinoma line MT-3. As to the kind of experiment: Example 5: MT-3 xenograft tumor growth, three studies with different HES types. It counts as in vivo. As for the experimental part:
In another set of three studies which were performed in analogy to the studies described above in Examples 1 and 2, more different HES types have been analysed in the same setting using the MT3 cell line mouse model.
Docetaxel (Taxotere®) was obtained from Sanofi-Aventis Deutschland GmbH, (Lot CHB D9C895; Berlin, Germany) and was stored in the dark at −20° C. until use. The injection solution was prepared immediately before use by dissolving in saline solution.
(§1) Hydroxyethyl starch compounds were obtained from Fresenius Kabi Deutschland GmbH on Dec. 7, 2012 and were stored at room temperature until use. The compounds each were dissolved in saline to obtain 10% w/v solutions. The application was 400 μl/20 g mouse body weight for saline and HES solutions, while Docetaxel was given in a volume of 10 ml/kg as slow bolus. The route of administration was intravenously for all mice.
(§2) Adult female NMRI:nu/nu mice (TACONIC Europe, Lille Skensved, Denmark) bred in the own (EPO) colony were used throughout the study. At the start of experiment they were 6-8 weeks of age.
The MT-3 cell line was used for subcutaneous (s.c.) xenotransplantation in immune deficient female NMRI:nu/nu mice. The MT-3 breast carcinoma cell line was obtained from the tumour bank of the National Cancer Institute of the former USSR, WONZ, Moscow.
The cells are cryo-preserved. Cells were thawed, expanded by in vitro culture and transplanted s.c. as cell suspension in female NMRI:nu/nu mice.
The number of 5×10^6 tumour cells was transplanted s.c into the flank of each mouse. The animals were monitored for tumour growth and when tumours were palpable, generally between day 7 and day 10 after transplantation, mice were randomised into the treatment groups with 15 mice each. Day 0 is defined as the day of first treatment.
Individual tumour diameters were measured twice weekly with a calliper-like instrument. Tumour volumes were calculated according to V=(length×(width)^2)/2. […] The relative tumour volume (RTV) and the treated to control (T/C RTV) values in percent were calculated for each measurement day in relation to V values at day 0.
(§3) In study 3 mice were sacrificed when the tumor size reached more than 1.5 cm^3, or the tumors ulcereted. Study 3 was finished when the mean TV was in most groups larger than 1.0 cm^3.
Mice were treated with i.v. injection of Docetaxel (Taxotere®) at day 0 and 14 at a dose of 40 mg/kg and with the hydroxyethyl starch compounds (20 ml/kg) once weekly.
In study 1 all mice developed tumours after s.c. transplantation of 5×10^6 MT-3 cells up to a size of 0.046±0.015 cm^3 within 7 days. Mice were treated intravenously with a dose of 40 mg/kg Docetaxel (Taxotere®) at days 0 and 14, whereas four different HES specifications in saline (containing each 10% w/v) were injected in a volume of 20 ml/kg i.v. weekly (day 0, 7, 14). Saline was injected once a week (20 ml/kg). All groups were treated during the whole experimental period accordingly to the planned schedule. The tumour of control mice in study 1 grew up to a volume of 1.1±0.6 cm^3.
In study 2 all mice developed tumours after s.c. transplantation of 5×10^6 MT-3 cells up to a size of 0.081±0.033 cm^3 within 9 days. Mice were treated intravenously with a dose of 40 mg/kg docetaxel at days 0 and 14, whereas four different HES specifications in saline (containing each 10% w/v) were injected in a volume of 20 ml/kg i.v. weekly (day 0, 7, 14). Saline was injected once per week (20 ml/kg). All groups were treated during the whole experimental period accordingly to the planned schedule. The tumour of control mice grew up until day 18 to a volume of 1.48±1.04 cm^3.
In study 3 all mice developed tumours after s.c. transplantation of 5×10^6 MT-3 cells up to a size of 0.059±0.018 cm3 within 7 days. […]

On the set-up of data set [3]: species or system NMRI:nu/nu mice. Conditions: mouse, in vivo. As for the experimental part: as §1, §2, §3
On the day of necropsy mice were sacrificed by cervical dislocation and inspected for gross organ changes.

Setting [4] is: blood drawn three days after single i.v. treatment.

Regarding `CC(=O)O[C@@]12CO[C@@H]1C[C@H](O)[C@@]1(C)C(=O)[C@H](O)C3=C(C)[C@@H](OC(=O)[C@H](O)[C@@H](NC(=O)OC(C)(C)C)c4ccccc4)C[C@@](O)([C@@H](OC(=O)c4ccccc4)[C@H]21)C3(C)C` [Docetaxel], in data set [1] (after single i.v. treatment, FIG. 3), the “body weight development (in words)” value was “Body weight loss”. Moreover, the “leucopenia (in words)” value in data set [1] (after single i.v. treatment, table 5) is “slight but significant leucopoenia”. Besides, the “Platelets × 10^6 at day 10” value in data set [1] (setting [4]) is 1418 ± 85 × 10^6. Also, in data set [1] (setting [4]), the “WBC × 10^6 at day 10” value is recorded as 3.09 ± 0.76 × 10^6. Moreover, the “effect on platelet counts (in words)” value in data set [1] (compared to saline+EtOH treated group) was “no significant effect on the platelet counts”. The “tumour growth inhibition effect (in words)” value in data set [2] (studies 1 to 3, compared to saline control, FIGS. 7, 9, 11) was “strong inhibitory effect on tumour growth”. Further, the “RTV T/C” value in data set [2] (study 1) was found to be 14.4%; in data set [2] (study 2) it was 16.9%; in data set [2] (study 3, at day 7), 8.8%. In addition, the “inhibition of tumour growth” value in data set [2] (study 1) is reported as “more than 85%”; in data set [2] (study 2), 83%; in data set [2] (study 3, at day 7) it was 91%. Moreover, the “body weight (in words)” value in data set [3] was “moderate body weight loss”. Besides, the “general toxicity, clinical sign (in words)” value in data set [3] (iv) is “apathy”.
